Target: adrenergic β1 receptor (Homo sapiens, UniProt P08588)
Test: Ligand binding assay on adrenergic β1 receptor arrays printed on microcolumns
Conditions: 5 nM labeled ligand, microcolumn #1, about one hour incubation
Procedure: These glass microcolumns were coated with a thin gold layer and functionalized with GAPS. […] To assay ligand binding, the microcolumns were inserted into the wells of an 1×8-Stripwell plate (Corning®) containing a fluorescently-labeled β1 receptor ligand (bodipy-TMR CGP12177) (5 nM) in a ligand binding buffer (50 mM Tris-HCl, 2 mM EDTA, 1 mM MgCl2, pH 7.4, 0.1% BSA). […] Following incubation of about one hour, the microcolumns were removed, washed, and scanned to assess ligand binding on the array.

Sequence of adrenergic β1 receptor (P08588 whole entry): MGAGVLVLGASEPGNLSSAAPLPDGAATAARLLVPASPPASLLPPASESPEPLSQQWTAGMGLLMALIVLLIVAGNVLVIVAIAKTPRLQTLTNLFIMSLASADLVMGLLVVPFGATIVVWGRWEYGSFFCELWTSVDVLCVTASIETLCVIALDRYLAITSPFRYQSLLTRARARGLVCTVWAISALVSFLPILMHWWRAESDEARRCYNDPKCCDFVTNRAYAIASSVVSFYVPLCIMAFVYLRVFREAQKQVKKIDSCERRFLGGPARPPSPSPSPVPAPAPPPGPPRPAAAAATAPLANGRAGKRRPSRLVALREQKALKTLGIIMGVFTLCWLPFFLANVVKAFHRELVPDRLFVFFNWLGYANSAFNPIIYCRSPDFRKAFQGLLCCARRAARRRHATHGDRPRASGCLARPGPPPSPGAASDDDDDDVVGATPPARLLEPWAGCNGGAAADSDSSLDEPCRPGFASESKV

Binding of fluorescently-labeled ligand to the β1 receptor array (fluorescent signal): high fluorescent signal
Substance: bodipy-TMR CGP12177

Source: patent publication US7332328B2, “Microcolumn-platform based array for high-throughput analysis” (Corning Incorporated, priority 2001, dated 2008)
